Read-outs that look alike come from different tables or passages of the source.
Experiment: Pharmacokinetics of rivaroxaban in rats after avitinib or gefitinib pretreatment
Format: in vivo, Sprague–Dawley (SD) rats
Conditions: male, Sprague-Dawley, rat, plasma; for AUC(0-t): read-out: AUC(0-t); for CL/F: read-out: CLz/F (converted); for Cmax: read-out: Cmax; for MRT last: read-out: MRT(0-t); for half-life: read-out: t1/2z (converted); for k el: read-out: λz (converted); for MRT inf: read-out: MRT(0-∞)
Experimental: Eighteen male Sprague–Dawley (SD) rats weighing 300 ± 20 g were provided by the Experimental Animal Center of Wenzhou Medical University (Wenzhou, China) and kept under controlled conditions at a temperature of 23 ± 2 °C, relative humidity of 50 ± 10%, and 12 h light–dark cycle. Eighteen male SD rats were randomly assigned to three groups: avitinib, gefitinib, and control, with six rats per group. Prior to the experiment, the rats were not administered any other medications and fasted for 12 h. The experimental procedures and protocols adhered to Animal Ethics standards and were approved by the Animal Care and Use Committee of Wenzhou Medical University (approval no. wydw2019–650). All rats were anesthetized with sodium pentobarbital (40mg/kg, i.p) to relieve pain. The rats were killed through cervical dislocation.
Prior to the experiment in vivo, the six rats in the avitinib group were administered 30 mg/kg avitinib and 0.5% sodium carboxymethyl cellulose (CMC-Na) solution by gavage daily for 7 d. […] The supernatant was collected and stored at −80 °C. After thawing, 50 μL of plasma was extracted; 100 μL of acetonitrile solution containing midazolam (200 ng/mL) was then added to induce protein precipitation. After vortexing for 30 s and centrifuging at 13,000 rpm for 5 min, the […].
All assays were performed in triplicate, and the results are expressed as mean ± standard deviation. DAS software v. […] SPSS v. 25.0 (IBM, NY, USA) was used for data processing. Student’s t-tests were used to detect differences between groups. Differences with p < 0.05 were considered statistically significant.

[1] = po, 10 mg/kg, avitinib group, Mean
[2] = po, 10 mg/kg, avitinib group, single rats No1-No6
[3] = po, 10 mg/kg, gefitinib group, Mean
[4] = po, 10 mg/kg, gefitinib group, single rats No1-No6

concentration at 12 h (oral, rivaroxaban ng/ml mean, 吉非替尼 (gefitinib) group, mean of rats 7-12, time 12): 1640 ng/mL
concentration at 24 h (oral, rivaroxaban ng/ml mean, 艾维替尼 (avitinib) group, mean (one rat only), time 24): 14.8 ng/mL
concentration at 5 min (oral, rivaroxaban ng/ml mean, 艾维替尼 (avitinib) group, mean of rats 1-6, time 0.0833): 284 ng/mL
concentration at 0.25 h (oral, rivaroxaban ng/ml mean, 艾维替尼 (avitinib) group, mean of rats 1-6, time 0.25): 588 ng/mL
concentration at 0.5 h (oral, rivaroxaban ng/ml mean, 艾维替尼 (avitinib) group, mean of rats 1-6, time 0.5): 1090 ng/mL
concentration at 1 h (oral, rivaroxaban ng/ml mean, 艾维替尼 (avitinib) group, mean of rats 1-6, time 1): 1730 ng/mL
concentration at 2 h (oral, rivaroxaban ng/ml mean, 艾维替尼 (avitinib) group, mean of rats 1-6, time 2): 1650 ng/mL
concentration at 3 h (oral, rivaroxaban ng/ml mean, 艾维替尼 (avitinib) group, mean of rats 1-6, time 3): 1390 ng/mL
concentration at 4 h (oral, rivaroxaban ng/ml mean, 艾维替尼 (avitinib) group, mean of rats 1-6, time 4): 1010 ng/mL
concentration at 6 h (oral, rivaroxaban ng/ml mean, 艾维替尼 (avitinib) group, mean of rats 1-6, time 6): 538 ng/mL
concentration at 8 h (oral, rivaroxaban ng/ml mean, 艾维替尼 (avitinib) group, mean of rats 1-6, time 8): 448 ng/mL
concentration at 12 h (oral, rivaroxaban ng/ml mean, 艾维替尼 (avitinib) group, mean of rats 1-6, time 12): 80.9 ng/mL
concentration at 0.25 h (oral, rivaroxaban ng/ml, 吉非替尼 (gefitinib) group, individual rats 7-12, time 0.25): 1690 ng/mL
concentration at 0.5 h (oral, rivaroxaban ng/ml, 吉非替尼 (gefitinib) group, individual rats 7-12, time 0.5): 3820 ng/mL
concentration at 1 h (oral, rivaroxaban ng/ml, 吉非替尼 (gefitinib) group, individual rats 7-12, time 1): 5910 ng/mL
concentration at 3 h (oral, rivaroxaban ng/ml, 吉非替尼 (gefitinib) group, individual rats 7-12, time 3): 9510 ng/mL
concentration at 4 h (oral, rivaroxaban ng/ml, 吉非替尼 (gefitinib) group, individual rats 7-12, time 4): 11300 ng/mL
concentration at 6 h (oral, rivaroxaban ng/ml, 吉非替尼 (gefitinib) group, individual rats 7-12, time 6): 3980 ng/mL
concentration at 8 h (oral, rivaroxaban ng/ml, 吉非替尼 (gefitinib) group, individual rats 7-12, time 8): 3270 ng/mL
concentration at 5 min (oral, rivaroxaban ng/ml, 艾维替尼 (avitinib) group, individual rats 1-6, time 0.0833): 237 ng/mL
concentration at 24 h (oral, rivaroxaban ng/ml, 艾维替尼 (avitinib) group, individual rats 1-6, time 24): 14.8 ng/mL
AUC(0-inf) [1]: 9350 ng·h/mL
Tmax [1]: 1.33 h
AUC(0-t) [1]: 9000 ng·h/mL
CL/F [1]: 19.7 mL/min/kg
Cmax [1]: 1810 ng/mL
MRT last [1]: 3.79 h
half-life [1]: 132 min
k el [1]: 0.000104 s⁻¹
Tmax [2]: 1 h
MRT last [2]: 3.83 h
MRT inf [2]: 2.87 h
AUC(0-inf) [3]: 76000 ng·h/mL
Tmax [3]: 3.17 h
AUC(0-t) [3]: 58000 ng·h/mL
CL/F [3]: 2.32 mL/min/kg
Cmax [3]: 8310 ng/mL
MRT last [3]: 4.9 h
MRT inf [3]: 8.23 h
Vd/F (po, 10 mg/kg, gefitinib group, Mean, read-out: Vz/F): 0.867 L/kg
half-life [3]: 289 min
k el [3]: 5.17e-05 s⁻¹
AUC(0-inf) [4]: 109000 ng·h/mL
AUC(0-t) [4]: 62400 ng·h/mL
CL/F [4]: 1.53 mL/min/kg
Cmax [4]: 6780 ng/mL
Compound: O=C(NC[C@H]1CN(c2ccc(N3CCOCC3=O)cc2)C(=O)O1)c1ccc(Cl)s1 [rivaroxaban, Rivaroxaban]

Reference: PMC12133000 (PLOS One, 2025)
